Assay [1] deals with endogenous reverse transcriptase (RT) activity in platelets. Description: Reverse transcriptase activity assay in platelet lysates (reverse transcription of MS2 phage RNA). The conditions noted are these: platelet lysates incubated with compound at 37° C. for 120 minutes; nevirapine 100, 500, 750 μM; 9-cis retinoic acid 0.1, 1, 10 μM. The class given is biochemical, human. The protocol: Reverse Transcriptase Activity Assay (FIGS. 10A-C and FIGS. 11A-C). The reverse transcriptase (RT) activity assay was performed as previously described^22 with minor modifications. […] MS2 phage RNA was subsequently added to the lysates and reverse transcription of MS2 phage RNA by platelet lysates or a commercial RT (Thermoscript, Invitrogen, Eugene, Oreg.) was determined.

Assay [2] concerns human platelets. The assay is described as follows: Surface P-selectin expression of cultured platelets with new cell bodies after agonist activation (immunostaining). Particulars: after 6 hours culture; ADP (2 μM) or thrombin (0.005 U/ml) for 1 minute. The class given is cell-based. The text has this: For protein localization studies by immunocytochemistry (ICC), fixed cells were stained with antibodies directed against αIIbβ3 and Annexin V (ab34407; Abeam, Cambridge, Mass.), P-selectin (sc-6941; Santa Cruz Biotechnology, Santa Cruz, Calif.), β-tubulin (T-5293; Sigma), or mitofilin (MSM02; MitoSciences, Eugene, Oreg.). Specificity of the staining was confirmed for each antibody with isotype-matched nonimmune IgG. The cells were counterstained with either Alexa Fluor® 488 phalloidin or Alexa Fluor® 555 WGA conjugate as described in the previous paragraph. To assess mitochondrial function, use was made of MitoTracker® Red CM-H2XRos (M7513; Invitrogen), a reduced probe that fluoresces when it enters actively respiring mitochondria. For these studies, MitoTracker® (1 μM) was incubated with the live platelets one hour before the end of the experiment.

In assay [3] the test system is human platelets. The assay is described as follows: Platelet morphology: formation of extensions with new cell bodies (progeny) in suspension-cultured platelets. It is filed as cell-based. Particulars: platelets 1×10^5 per mm^3 cultured in suspension for 6 hours; nevirapine 750 μM; 9-cis retinoic acid 1 and 10 μM. The protocol:
Platelet Isolation and Culture. Whole blood was centrifuged at 150×g for 20 minutes to obtain platelet-rich plasma (PRP). Residual leukocytes were removed from the PRP by CD45+ bead selection as previously described^1, 6. The negatively selected platelets were resuspended in serum-free M199 culture medium at 37° C. in a humidified 5% CO2 atmosphere. For select studies, platelets were resuspended in fresh human plasma. […] Unless otherwise indicated, the washed platelets were cultured in suspension using round-bottom polypropylene tubes (Becton Dickinson, Franklin Lakes, N.J.). Platelets were suspended at 100,000/μl.
Platelet Morphology and Protein Expression. Freshly-isolated or aged platelets were either fixed immediately to assess baseline morphology, or after 6 hours of suspension culture as described above.
For studies that used fixed platelets, paraformaldehyde (4%) was added directly to the suspension culture as previously described^1, 6, 26 in order to maintain the native morphology of the cells. The fixed platelets (10,000 total for each sample) were subsequently layered onto coverslips coated with Vectabond™ (Vector Laboratories, Burlingame, Calif.) using a cytospin centrifuge (Shandon Cytospin, Thermo Fisher Scientific, Waltham, Mass.). To determine the number of platelets with extensions and distinct cell bodies, fixed cells were counterstained with Alexa Fluor® 488 phalloidin (A12379; Invitrogen, Eugene, Oreg.), a high-affinity probe for F-actin, and/or an Alexa Fluor® 555 (W32464; Invitrogen) conjugate of wheat germ agglutinin (WGA). Three random fields were captured from each independent experiment and at least 500 total cells, which encompassed individual platelets with two or more distinct cell bodies, were counted (FIG. 1H and FIG. 1I).

“Also recorded” adds a separate entry of the source.

Consider `CC1=C(/C=C/C(C)=C\C=C\C(C)=C\C(=O)O)C(C)(C)CCC1` [9-cis retinoic acid], for which, in assay [1], the “RT activity in platelets” value was “inhibited”.
Regarding `Nc1ncnc2c1ncn2[C@@H]1O[C@H](COP(=O)(O)OP(=O)(O)O)[C@@H](O)[C@H]1O` [ADP], in assay [2], the “surface P-selectin expression in platelets that developed new cell bodies” value is reported as “markedly increased”.
On to `Cc1ccnc2c1NC(=O)c1cccnc1N2C1CC1` [nevirapine], for which the “RT activity in platelets” value in assay [1] is “inhibited”.
With cytocholasin D, in assay [3], the “number of newly-formed cell bodies extending from cultured platelets / progeny formation” value is recorded as “inhibited”.
Turning to thrombin, the “number of newly-formed cell bodies extending from cultured platelets / progeny formation” value in assay [3] is “did not develop new cells bodies; also recorded: blocks”. Moreover, the “surface P-selectin expression in platelets that developed new cell bodies” value in assay [2] is given as “markedly increased”.
“thrombopoietin: key regulator of bone marrow-dependent thrombopoiesis”: the “number of newly-formed cell bodies extending from cultured platelets / progeny formation” value in assay [3] is recorded as “no effect”.

Values taken from patent US20110294737A1, “TERMINALLY-DIFFERENTIATED ANUCLEATE PLATELET PROGENY GENERATION” (priority 2008, published 2011).
